Measurements published in PMC7463931, “Structure-Antifouling Activity Relationship and Molecular Targets of Bio-Inspired(thio)xanthones” (Biomolecules, 2020).
Like-named read-outs stand apart in the source and are kept apart here.

Assays:
[1] = test system: Agaricus bisporus tyrosinase; experiment: In vitro determination of tyrosinase inhibition activity; type: biochemical
Procedure: Tyrosinase inhibition assays were conducted using Agaricus bisporus tyrosinase (EC 1.14.18.1) according to Adhikari et al. with appropriate adaptations. The enzymatic reaction follows the catalytic conversion of L-Dopa to dopaquinone and the formation of dopachrome by measuring the absorbance at 475 nm. Briefly, 50 µL of tyrosinase (25 U.mL^−1) in 50 mM phosphate buffer pH 6.5, adding the defined concentration of compounds in DMSO. The enzymatic activity was initiated by L-dopa (25 mM). Kojic acid was used as positive control and DMSO as negative control.

[2] = test system: Mytilus galloprovincialis plantigrade larvae; experiment: M. galloprovincialis larvae anti-settlement bioassay; type: in vivo; conditions: for EC50: dose-response, read-out: EC50 (concentration that inhibited 50% of larval settlement); for inhibition at 50 µM: initial screening bioassay at 50 µM, 15 h
Procedure: (§1) The 19 xanthone derivatives were screened for anti-settlement activity toward M. galloprovincialis plantigrade larvae. Samples of M. galloprovincialis juveniles were collected from mussel beds during low tides in the intertidal zone of Memória beach, Matosinhos, Portugal (41°13′59″ N; 8°43′28″ W). Mussel plantigrade larvae (0.5–2 mm) were sorted in a binocular magnifier (Olympus SZX2-ILLT, Tokyo, Japan) and kept in filtered seawater until bioassays preparation. […] Five competent larvae were included per well and four well replicates per condition. Stock solutions (50 mM) in DMSO were used to prepare test media in filtered seawater (0.1%). Negative and positive controls were used, namely DMSO (0.1%) and CuSO4 (5 μM) as an efficient antifouling agent. After exposure, the anti-settlement bioactivity was determined by the observation of efficiently attached plantigrade larvae considering the existence/absence of produced byssal threads for each test condition. Compounds producing more than 50% of settlement inhibition at 50 µM were selected for antifouling effectiveness (EC50) and toxicity (LC50 and therapeutic index) bioassays, according to previously validated experimental conditions.
(§2) Therapeutic ratios (LC50/EC50) were used to evaluate the effectiveness versus toxicity of bioactive compounds. For the differential proteome analysis, non-parametric Kruskall-Wallis (KW) and Mann Whitney (MW) tests were utilized to report protein abundance differences between treatments in MultiExperiment Viewer (MeV) version 4.9 (The Institute for Genomic Research (TIGR), La Jolla, CA, USA) at a confidence level of 95% [34]. The hierarchical clustering of proteins was made using Pearson correlation and average linkage method.

[3] = Toxicity (mortality, LC50) to mussel plantigrade larvae in the anti-settlement bioassay; type: in vivo, Mytilus galloprovincialis; conditions: Mytilus galloprovincialis, in vivo, other: immersion in test media in filtered seawater; mussel plantigrade larvae; read-out: LC50 (median lethal dose)
Procedure: as §1, §2

[4] = target: T1, Electrophorus electric AChE Type V-S (Electrophorus electricus, UniProt O42275); experiment: In vitro determination of acetylcholinesterase (AChE) inhibition activity; type: biochemical; conditions: for AChE inhibition compared to control: 50 µM; for dose-response of AChE activity: Figure 4b
T1 construct: purchased SIGMA C2888
Procedure: AChE inhibition was evaluated as a neurotransmission biomarker for the 19 compounds using Electrophorus electric AChE Type V-S (SIGMA C2888, E.C. 3.1.1.7), according to Ellman et al. (1961) and modified by Almeida et al. (2015). Briefly, 250 μL of the reaction solution containing 30 mL of phosphate buffer, 1mL of the reagent dithiobisnitrobenzoate (DTNB) at 10 mM (acid dithiobisnitrobenzoate and sodium hydrogen carbonate in phosphate buffer), and 200 μL of […] 0.075 M was added to 50 μL of pure AChE (0.25 U.mL^−1) and each test compound at final concentration of 30 μg mL^−1 in quadruplicate. AChE activity was followed at 412 nm during 5 min at 25 °C. Negative and positive controls were included, namely ultra-pure water and eserine (20 mM), respectively, and a blank containing 50 μL of phosphate buffer.

Artemia salina nauplii = experiment: Brine shrimp (Artemia salina) lethality test; type: in vivo; conditions: 25 and 50 µM, 48 h of exposure
Procedure: Ecotoxicity to non-target species was assessed using the brine shrimp (Artemia salina) lethality test standard protocol. Artemia cysts were cultivated and newly hatched nauplii I were used for the exposure to the most promising antifouling compounds at 50 and 25 µM. The bioassay was performed in 96-well microplates with eight replicates per condition and 15–20 nauplii per well. Positive (K2Cr2O7 at 13.6 µM) and negative (DMSO) controls were included. After 48 h of exposure, the percentage of nauplii mortality was determined.

[5] = test system: Mytilus galloprovincialis plantigrade larvae; experiment: Toxicity (mortality, LC50) to mussel plantigrade larvae in the anti-settlement bioassay; type: in vivo
Procedure: as §1, §2

[6] = test system: Mytilus galloprovincialis plantigrade larvae; design: method as in PMID 31669574; conditions: at 108 µM, same bioassay conditions; cited from earlier work

T1 sequence (O42275 24-633): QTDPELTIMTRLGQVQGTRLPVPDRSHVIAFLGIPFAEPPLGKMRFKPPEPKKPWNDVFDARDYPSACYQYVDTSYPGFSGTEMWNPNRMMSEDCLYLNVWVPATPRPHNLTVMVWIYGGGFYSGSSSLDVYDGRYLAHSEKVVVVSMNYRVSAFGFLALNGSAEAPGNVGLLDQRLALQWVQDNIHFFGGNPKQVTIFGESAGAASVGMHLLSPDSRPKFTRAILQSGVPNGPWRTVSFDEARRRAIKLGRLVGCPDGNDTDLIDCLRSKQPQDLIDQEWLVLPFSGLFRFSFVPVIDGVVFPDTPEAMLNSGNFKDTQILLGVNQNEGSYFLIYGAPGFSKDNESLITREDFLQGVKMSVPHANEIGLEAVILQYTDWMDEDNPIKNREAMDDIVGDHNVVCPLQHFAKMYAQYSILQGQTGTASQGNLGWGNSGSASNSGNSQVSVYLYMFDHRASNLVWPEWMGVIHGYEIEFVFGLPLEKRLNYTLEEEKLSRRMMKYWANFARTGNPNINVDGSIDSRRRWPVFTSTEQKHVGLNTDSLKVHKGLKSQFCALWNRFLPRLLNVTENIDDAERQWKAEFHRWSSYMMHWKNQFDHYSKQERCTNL

| SMILES | inhibition of tyrosinase activity ([1]; 50 µM) [%] | EC50 ([2]; Probit regression, 95% CI) [µM] | EC50 [2] [µg/mL] | inhibition at 50 µM [2] [%] | LC50 at 15 h [3] [µM] | AChE inhibition compared to control [4] | dose-response of AChE activity [4] | Artemia salina mortality (Artemia salina nauplii) [%] | mortality of mussel plantigrade larvae ([5]; at 500 µM) [%] | mortality of mussel plantigrade larvae ([5]; at 100 µM) [%] | induction of tyrosinase activity ([1]; 25 μM) [%] | induction of tyrosinase activity ([1]; 200 μM) [%] | mortality of mussel plantigrade larvae [6] [%] |
| --- | --- | --- | --- | --- | --- | --- | --- | --- | --- | --- | --- | --- | --- |
| O=c1c2ccc(O)cc2oc2cc(O)ccc12 [Compound 8, 3,6-dihydroxy-] | 34 |  |  |  |  |  |  |  |  |  |  |  |  |
| O=c1c2ccccc2oc2c(O)cccc12 [Compound 4, 4-hydroxy-] |  | 21.5 | 4.55 | 70 ± 12.9 | > 500 | showed AChE inhibition | concentration-dependent modulation of AChE activity | > 10 |  |  |  |  |  |
| O=c1c2ccccc2oc2ccc(O)c(O)c12 [Compound 5, 1,2-dihydroxy-] |  | 15.5 | 3.52 | 70 ± 12.9 | > 500 | showed AChE inhibition | concentration-dependent modulation of AChE activity | > 10 |  |  |  |  |  |
| CCCOc1ccc(N2CCCCC2)c2c(=O)c3ccccc3sc12 [Compound 17, 1-(piperidin-1-yl)-4-propoxy-9H-thioxanthen-9-one] |  | 3.53 | 1.25 | 71.7 ± 5 | > 500 |  |  | > 10 | 17 |  |  |  |  |
| CC1(C)CCc2cc3c(=O)c4ccccc4oc3c(O)c2O1 [Compound 10, 4-dihydro-12-hydroxy-2,2-dimethyl-2H,6H-pyrano [3,2-b]xanthone] |  | 4.6 | 1.36 | 75 ± 9.6 | > 500 |  |  | < 10 |  | 15 |  |  |  |
| O=c1c2ccccc2oc2c(O)c(O)ccc12 [Compound 7, 3,4-dihydroxy-] |  | 11.5 | 2.63 | 65 ± 17.1 | > 500 |  |  | < 10 |  |  | 11.7 | 62.5 |  |
| CCCOc1ccc(NCCc2ccc3c(c2)OCO3)c2c(=O)c3ccccc3sc12 [Compound 15, 1-[11]-4-propoxy-9H-thioxanthen-9-one] |  | 28.6 | 12.4 | 71.2 ± 10.9 | > 500 |  |  | > 10 |  |  |  |  |  |
| N#Cc1c(-c2ccc(Cl)cc2)[nH]c(C(F)(F)F)c1Br [ECONEA] |  |  |  |  |  |  |  |  |  |  |  |  | 50 |
